Test results reported in ChEMBL document CHEMBL1201862, “PubChem BioAssay data set” (2004).
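Each compound was tested at five concentrations against cells in 96-well plates for 48 hours. The concentration for 50% growth inhibition is given as GI50.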 Calls of active or inactive are those of the source. No stated cut-off is given here; in the data, active = GI50 up to about 1.1 µM and inactive = higher.

Columns and labels:
Test in all cases: inhibition of tumour cell growth, NCI panel, 48 h
[1] = system: EKVX
[2] = system: LOX IMVI
[3] = system: CCRF-CEM
[4] = system: RPMI-8226
[5] = system: MDA-MB-231
[6] = system: UACC-257
[7] = system: OVCAR-4
[8] = system: CAKI-1
[9] = system: SNB-75
[10] = system: OVCAR-5
[11] = system: A498
[12] = system: IGROV-1
[13] = system: NCI-H226
[14] = system: ACHN
[15] = system: 786-0
[16] = system: NCI-H460
[17] = system: RXF 393
[18] = system: SK-MEL-5
[19] = system: M14
[20] = system: Malme-3M
[21] = system: HCT-116
[22] = system: COLO 205
[23] = system: SR
[24] = system: PC-3
[25] = system: UACC-62
[26] = system: T47D
[27] = system: SK-MEL-28
[28] = system: SW-620
[29] = system: SF-268
[30] = system: HOP-92
[31] = system: MDA-MB-435
[32] = system: MDA-N
[33] = system: NCI/ADR-RES
[34] = system: SN12C
[35] = system: HCC 2998
[36] = system: BT-549
[37] = system: TK-10
[38] = system: HOP-62
[39] = system: UO-31
[40] = system: MOLT-4
[41] = system: SK-MEL-2
[42] = system: SK-OV-3
[43] = system: NCI-H522
[44] = system: HT-29
[45] = system: SF-295
[46] = system: A549
[47] = system: SNB-19
[48] = system: U-251
[49] = system: OVCAR-8
[50] = system: Hs-578T
[51] = system: HL-60
[52] = system: K562
[53] = system: HCT-15
[54] = system: NCI-H23
[55] = system: OVCAR-3
[56] = system: MCF7
[57] = system: DU-145
[58] = system: KM12
[59] = system: SF-539

## O=c1c2cnccc2cc2c3ccccc3ccn12
[1]
  GI50: 3.63 µM (inactive)
[2]
  GI50: 18.9 µM (inactive)
[3]
  GI50: 36.6 µM (inactive)
[4]
  GI50: 19.9 µM (inactive)
[5]
  GI50: > 100 µM (inactive)
[6]
  GI50: > 100 µM (inactive)
[7]
  GI50: 50.4 µM (inactive)
[8]
  GI50: 9.89 µM (inactive)
[9]
  GI50: 61 µM (inactive)
[10]
  GI50: > 100 µM (inactive)
[11]
  GI50: > 100 µM (inactive)
[12]
  GI50: 6.15 µM (inactive)
[13]
  GI50: > 100 µM (inactive)
[14]
  GI50: 19.3 µM (inactive)
[15]
  GI50: 84.7 µM (inactive)
[16]
  GI50: 5.78 µM (inactive)
[17]
  GI50: > 100 µM (inactive)
[18]
  GI50: 46.1 µM (inactive)
[19]
  GI50: > 100 µM (inactive)
[20]
  GI50: 57.3 µM (inactive)
[21]
  GI50: 31.8 µM (inactive)
[22]
  GI50: 63.2 µM (inactive)
[23]
  GI50: 2.03 µM (inactive)
[24]
  GI50: 77.8 µM (inactive)
[25]
  GI50: 4.7 µM (inactive)
[26]
  GI50: 32.4 µM (inactive)
[27]
  GI50: > 100 µM (inactive)
[28]
  GI50: 49.8 µM (inactive)
[29]
  GI50: 86.1 µM (inactive)
[30]
  GI50: > 100 µM (inactive)
[31]
  GI50: 97.3 µM (inactive)
[32]
  GI50: > 100 µM (inactive)
[33]
  GI50: > 100 µM (inactive)
[34]
  GI50: 61.2 µM (inactive)
[35]
  GI50: 53.7 µM (inactive)
[36]
  GI50: 65.6 µM (inactive)
[37]
  GI50: 24.3 µM (inactive)
[38]
  GI50: > 100 µM (inactive)
[39]
  GI50: 23.1 µM (inactive)
[40]
  GI50: 5.21 µM (inactive)
[41]
  GI50: > 100 µM (inactive)
[42]
  GI50: > 100 µM (inactive)
[43]
  GI50: 45.6 µM (inactive)
[44]
  GI50: 28.2 µM (inactive)
[45]
  GI50: > 100 µM (inactive)
[46]
  GI50: 45.8 µM (inactive)
[47]
  GI50: > 100 µM (inactive)
[48]
  GI50: 68.4 µM (inactive)
[49]
  GI50: 11.6 µM (inactive)
[50]
  GI50: 71.8 µM (inactive)
[51]
  GI50: 17.7 µM (inactive)
[52]
  GI50: 37.9 µM (inactive)
[53]
  GI50: 23.1 µM
[54]
  GI50: 51.6 µM (inactive)
[55]
  GI50: > 100 µM (inactive)
[56]
  GI50: 13.2 µM (inactive)
[57]
  GI50: > 100 µM (inactive)
[58]
  GI50: 5.64 µM (inactive)
[59]
  GI50: > 100 µM (inactive)

## Clc1ccc(-c2cn3c(nc4ccccc43)c(-c3ccccc3)n2)cc1
[1]
  GI50: 64.3 µM (inactive)
[2]
  GI50: 32 µM (inactive)
[3]
  GI50: > 70.8 µM (inactive)
[4]
  GI50: > 100 µM (inactive)
[5]
  GI50: 42.6 µM (inactive)
[6]
  GI50: 61.2 µM (inactive)
[7]
  GI50: 5.85 µM (inactive)
[8]
  GI50: 16.3 µM (inactive)
[9]
  GI50: 9.51 µM (inactive)
[10]
  GI50: > 38.9 µM (inactive)
[11]
  GI50: 23.9 µM (inactive)
[12]
  GI50: 24 µM (inactive)
[13]
  GI50: 47 µM (inactive)
[14]
  GI50: 29.6 µM (inactive)
[15]
  GI50: 9.35 µM (inactive)
[16]
  GI50: 18 µM (inactive)
[17]
  GI50: 15.6 µM (inactive)
[18]
  GI50: 17.7 µM (inactive)
[19]
  GI50: 28.3 µM (inactive)
[20]
  GI50: 23.1 µM (inactive)
[21]
  GI50: 29.9 µM (inactive)
[22]
  GI50: 40.2 µM (inactive)
[23]
  GI50: > 82 µM (inactive)
[24]
  GI50: 18.7 µM (inactive)
[25]
  GI50: 11.4 µM (inactive)
[26]
  GI50: 36.6 µM (inactive)
[27]
  GI50: 39.8 µM (inactive)
[28]
  GI50: 43.3 µM (inactive)
[29]
  GI50: 48 µM (inactive)
[30]
  GI50: 18 µM (inactive)
[31]
  GI50: 25.2 µM (inactive)
[32]
  GI50: 27.2 µM (inactive)
[33]
  GI50: 34.9 µM (inactive)
[34]
  GI50: 36.5 µM (inactive)
[35]
  GI50: 44.9 µM (inactive)
[36]
  GI50: 19.5 µM (inactive)
[37]
  GI50: 22 µM (inactive)
[38]
  GI50: 11.5 µM (inactive)
[39]
  GI50: 24.2 µM (inactive)
[40]
  GI50: > 100 µM (inactive)
[41]
  GI50: 14.1 µM (inactive)
[42]
  GI50: 11.6 µM (inactive)
[43]
  GI50: 13.8 µM (inactive)
[44]
  GI50: 10.8 µM (inactive)
[45]
  GI50: 13.3 µM (inactive)
[46]
  GI50: 17.4 µM (inactive)
[47]
  GI50: 13.9 µM (inactive)
[48]
  GI50: 12.8 µM (inactive)
[49]
  GI50: 12.1 µM (inactive)
[50]
  GI50: 12.3 µM (inactive)
[51]
  GI50: > 100 µM (inactive)
[52]
  GI50: > 84.7 µM (inactive)
[53]
  GI50: > 100 µM
[54]
  GI50: 24.5 µM (inactive)
[55]
  GI50: 27.7 µM (inactive)
[56]
  GI50: 28.1 µM (inactive)
[57]
  GI50: > 71.9 µM (inactive)
[58]
  GI50: > 57.5 µM (inactive)
[59]
  GI50: 22.3 µM (inactive)
